# Measurements reported in patent US20070105940A1, “Method for treating pain” (ALLERGAN, INC., priority 2005, published 2007).
# pIC50: −log10 of the molar value. Read-outs that look alike come from different tables or passages of the source.
# Key:
# anandamide levels = experiment: Anandamide levels in the periaqueductal grey after intra-PAG injection; format: in vivo; settings: 4 μg/rat intra-PAG, measured 20 min following injection
# [1] = test system: OFF cells of the rostral ventromedial medulla; experiment: Inhibitory effect of formalin on OFF cells of the rostral ventromedial medulla; format: in vivo, rat; settings: FIG. 2B
# [2] = test system: chronic constrictory injury (CCI) of the sciatic nerve; experiment: CCI neuropathic pain, thermal nociceptive response (Plantar Test, paw withdrawal latency); format: in vivo, rat; settings: CCI rats, i.p. for 7 days; AA-5-HT 5 mg/kg, URB-597 3 mg/kg; FIG. 4
# Method: (§1) Neuropathic pain was induced by chronic constrictory injury (CCI) of the sciatic nerve. Rats were anaesthetized with sodium pentobarbital (60 mg/kg i.p.), the right sciatic nerve was exposed and four ligatures were loosely tied around the nerve just proximal to the trifurcation. Control rats underwent a sham surgery with exposure of the sciatic nerve without ligature.
# (§2) Changes in thermal and mechanical nociceptive responses have been evaluated using a Plantar Test Apparatus and Dynamic Plantar Anaesthesiometer (Ugo Basile, Varese, Italy). Thermal paw withdrawal latency and mechanical paw withdrawal threshold (PWL and PWT) were measured (in sec and grams, respectively) for each group of rats every 30 min for 3 h.
# [3] = test system: nociceptive response to formalin injected into the rat paw; experiment: Nociceptive response to formalin injected into the rat paw; format: in vivo
# TRPV1 channels [4] = target: T1, TRPV1 channels (Homo sapiens, UniProt Q8NER1); experiment: Blocking of TRPV1 channel activation by capsaicin; format: cell-based; settings: capsaicin 100 nM; FIG. 1A; read-out: IC50 against capsaicin
# T1 sequence (Q8NER1 whole entry): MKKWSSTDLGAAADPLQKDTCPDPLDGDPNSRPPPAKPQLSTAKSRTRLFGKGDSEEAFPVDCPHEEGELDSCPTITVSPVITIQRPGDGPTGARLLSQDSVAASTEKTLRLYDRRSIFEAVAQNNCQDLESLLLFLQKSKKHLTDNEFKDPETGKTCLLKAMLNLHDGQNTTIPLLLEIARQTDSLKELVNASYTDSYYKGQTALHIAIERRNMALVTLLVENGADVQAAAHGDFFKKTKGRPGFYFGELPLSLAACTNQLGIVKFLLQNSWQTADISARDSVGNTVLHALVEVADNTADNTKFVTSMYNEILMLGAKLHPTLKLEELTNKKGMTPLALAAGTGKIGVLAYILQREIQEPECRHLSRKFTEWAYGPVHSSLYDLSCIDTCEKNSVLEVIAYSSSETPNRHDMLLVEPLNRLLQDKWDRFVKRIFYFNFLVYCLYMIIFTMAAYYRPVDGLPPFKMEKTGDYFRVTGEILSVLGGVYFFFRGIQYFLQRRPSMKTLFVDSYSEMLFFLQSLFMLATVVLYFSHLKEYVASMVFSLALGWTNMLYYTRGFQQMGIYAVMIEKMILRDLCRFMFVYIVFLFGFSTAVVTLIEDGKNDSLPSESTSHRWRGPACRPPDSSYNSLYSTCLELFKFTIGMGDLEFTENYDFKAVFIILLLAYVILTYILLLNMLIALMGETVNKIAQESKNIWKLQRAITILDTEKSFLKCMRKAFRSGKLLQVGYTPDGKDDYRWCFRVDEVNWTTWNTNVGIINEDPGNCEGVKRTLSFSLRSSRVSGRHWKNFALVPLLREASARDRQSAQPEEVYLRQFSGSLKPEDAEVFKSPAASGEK
# [5] = test system: fatty acid amide hydrolase (FAAH); experiment: FAAH inhibition in vitro; format: biochemical
# Source text: Similar results were obtained with other congeners, provided that at least one double bond was present in the acyl chain.
# [6] = test system: chronic constrictory injury (CCI) of the sciatic nerve; experiment: CCI neuropathic pain, mechanical allodynia (Dynamic Plantar Anaesthesiometer, paw withdrawal threshold); format: in vivo, rat; settings: CCI rats, i.p. for 7 days; AA-5-HT 5 mg/kg, URB-597 3 mg/kg; FIG. 3
# Method: as §1, §2
# TRPV1 channels [7] = target: T1, TRPV1 channels; settings: read-out: IC50 against capsaicin, previously reported; cited from earlier work
Compound,anandamide levels in the PAG (anandamide levels),inhibitory effect of formalin on the OFF cells of the rostral ventromedial medulla ([1]; supraspinal level),thermal nociceptive responses [2],"nociceptive response to formalin ([3]; 4 μg/rat injected into the periaqueductal grey (PAG), FIG. 2A)","nocifensive response to formalin ([3]; 1 mg/rat, s.c., injected into the paw)",pIC50 (TRPV1 channels [4]),type of FAAH inhibition [5],less potent than URB-597 at inhibiting FAAH ([5]; in vitro) [fold],mechanical allodynia [6],pIC50 (TRPV1 channels [7]),effect on the action of AA-5-HT on OFF cells [1],"effect on the anti-hyperalgesic effect of AA-5-HT ([3]; AA-5-HT 4 μg/rat intra-PAG, AM251 (nmol/rat), capsazepine 6 nmol/rat)",effect on the action of AA-5-HT injected into the paw ([3]; AA-5-HT 1 mg/rat s.c. into the paw)
"CCCCC/C=C\C/C=C\C/C=C\C/C=C\CCCC(=O)NCCc1c[nH]c2ccc(O)cc12 [AA-5-HT, N-arachidonoyl-serotonin]",elevated,blocking the inhibitory effect of formalin,as efficacious as URB-597,potently inhibited both phases,"selectively blocked the 2nd, inflammatory phase",6.89,mixed inhibitors,100,totally abolished,–,–,–,–
"NC(=O)c1cccc(-c2cccc(OC(=O)NC3CCCCC3)c2)c1 [URB-597, reference compound]",–,–,reducing thermal nociceptive responses,–,–,–,–,–,ineffective,–,–,–,–
"Oc1cc2c(cc1O)CN(C(=S)NCCc1ccc(Cl)cc1)CCC2 [capsazepine, reference compound]",–,–,–,–,–,–,–,–,–,7.22,occluded,occluded,occluded
